Measured values taken from article PMC7224190, “Pharmacological inhibition of PRMT7 links arginine monomethylation to the cellular stress response” (Nature Communications, 2020).

Legend:
PRMT7 [1] = molecular target: T1, PRMT7 (Homo sapiens, UniProt Q9NVM4); assay: radiometric enzyme kinetics (Km of the methyl donor) with HSPA8 as substrate in presence of ATP; type: biochemical
T1 sequence (Q9NVM4 1-692): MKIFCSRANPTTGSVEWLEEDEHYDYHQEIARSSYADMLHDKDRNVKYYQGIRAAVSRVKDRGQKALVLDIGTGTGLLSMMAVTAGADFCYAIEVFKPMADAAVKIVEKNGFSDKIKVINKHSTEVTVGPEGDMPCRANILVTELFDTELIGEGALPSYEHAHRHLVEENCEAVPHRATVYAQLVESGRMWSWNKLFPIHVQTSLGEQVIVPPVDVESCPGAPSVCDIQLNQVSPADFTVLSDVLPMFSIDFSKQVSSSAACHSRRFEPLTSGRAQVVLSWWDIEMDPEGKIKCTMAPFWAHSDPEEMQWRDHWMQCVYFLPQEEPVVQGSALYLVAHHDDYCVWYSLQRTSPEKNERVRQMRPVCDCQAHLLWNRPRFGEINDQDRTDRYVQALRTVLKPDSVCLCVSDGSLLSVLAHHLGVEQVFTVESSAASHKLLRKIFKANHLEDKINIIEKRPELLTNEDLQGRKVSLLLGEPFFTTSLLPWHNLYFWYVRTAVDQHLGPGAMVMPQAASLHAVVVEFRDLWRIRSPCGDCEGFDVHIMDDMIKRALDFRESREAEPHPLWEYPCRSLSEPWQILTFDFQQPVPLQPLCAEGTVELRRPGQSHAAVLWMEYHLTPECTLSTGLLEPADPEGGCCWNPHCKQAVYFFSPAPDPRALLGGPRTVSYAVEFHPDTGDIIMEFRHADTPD

PRMT7 [2] = molecular target: T1, PRMT7; assay: radiometric SPA methyltransferase assay, 3H-SAM and H2B ([…]); type: biochemical

`C[S@@+](CC[C@H](N)C(=O)O)C[C@H]1O[C@@H](n2cnc3c(N)ncnc32)[C@H](O)[C@@H]1O` [SAM] was tested, and the Km (PRMT7 [1]) was 1.6 ± 0.1 µM.

`NCCCSC[C@H]1O[C@@H](n2cnc3c(N)ncnc32)[C@H](O)[C@@H]1O` [SGC0911] gave an IC50 (PRMT7 [2]) of 1 µM.
